Reference: ChEMBL document CHEMBL1149475, “Evaluation of antitumor properties of novel saframycin analogs in vitro and in vivo” (Bioorg Med Chem Lett, 2006)
Blank lines part the entries; values can stand above or below the compound they belong to.

Tests used:
PC-3 = test: Antiproliferative activity against human PC3 cells; format: functional
[1] = AUC in Balb/C mouse at 0.5 mg/kg, iv and 2 mg/kg, ip; format: ADME, organism-based; conditions: plasma
NALM-6 = test: Antiproliferative activity against human Nalm6 cells; format: functional
A549 = test: Antiproliferative activity against human A549 cells; format: functional
DU-145 = test: Antiproliferative activity against human DU145 cells; format: functional
[2] = Beta half life in Balb/C mouse at 0.5 mg/kg, iv and 2 mg/kg, ip; format: ADME, organism-based; conditions: in vivo, read-out: beta t1/2
[3] = Bioavailability in Balb/C mouse at 0.5 mg/kg, iv and 2 mg/kg, ip; format: ADME, organism-based; conditions: in vivo
DLD-1 = test: Antiproliferative activity against human DLD1 cells; format: functional
BXPC-3 = test: Antiproliferative activity against human BxPC3 cells; format: functional
[4] = Cmax in Balb/C mouse at 0.5 mg/kg, iv and 2 mg/kg, ip; format: ADME, organism-based; conditions: in vivo
HeLa = test: Antiproliferative activity against human HeLa-S3 cells; format: functional
NCI-H1299 = test: Antiproliferative activity against human H1299 cells; format: functional
[5] = Alpha half life in Balb/C mouse at 0.5 mg/kg, iv and 2 mg/kg, ip; format: ADME, organism-based; conditions: in vivo
A-375 = test: Antiproliferative activity against human A375 cells; format: functional
[6] = Clearance in Balb/C mouse at 0.5 mg/kg, iv and 2 mg/kg, ip; format: ADME, organism-based; conditions: in vivo
HT-29 = test: Antiproliferative activity against human HT29 cells; format: functional
HCT-116 [7] = test: Antiproliferative activity against human HCT116 cells; format: functional
CWR22R = test: Antiproliferative activity against human CWR22Rv1 cells; format: functional; conditions: 22Rv1
HT-1080 = test: Antiproliferative activity against human HT1080 cells; format: functional
MDA-MB-231 = test: Antiproliferative activity against human […] cells; format: functional
P12-Ichikawa = test: Antiproliferative activity against human P12 cells; format: functional
Mus musculus [8] = test: Toxicity in mouse at 1.25 mg/kg, ip assessed as loss of body weight; format: organism-based; parameters: dose 1.25 mg/kg, route intraperitoneal; conditions: in vivo
HCT-116 [9] = test: Antitumor activity against human HCT116 cells transplanted in mouse at 1.25 mg/kg, ip; format: functional; conditions: HCT-116, ip, route intraperitoneal, read-out: TGI
Mus musculus [10] = test: Toxicity in mouse at 2.5 mg/kg, ip assessed as loss of body weight; format: organism-based; parameters: dose 2.5 mg/kg, route intraperitoneal; conditions: in vivo
HCT-116 [11] = test: Antitumor activity against human HCT116 cells transplanted in mouse at 2.5 mg/kg, ip; format: functional; conditions: HCT-116, ip, route intraperitoneal, read-out: TGI

SMILES: COc1c(C)c(OC)c2c(c1O)[C@@H]1[C@@H]3Cc4c(OC)c(C)c(OC)c(O)c4[C@H](CNC(=O)c4ccc5ccccc5n4)N3[C@@H](C#N)[C@H](C2)N1C
- GI50 (PC-3): 6.2 nM
- AUC [1]: 0.167 µM·h
- GI50 (NALM-6): 0.6 nM
- GI50 (A549): 10.7 nM
- GI50 (DU-145): 6.9 nM
- half-life [2]: 17 min
- bioavailability [3]: 46%
- GI50 (DLD-1): 8.1 nM
- GI50 (BXPC-3): 5.8 nM
- Cmax [4]: 1100 nM
- GI50 (HeLa): 6.6 nM
- GI50 (NCI-H1299): 6.2 nM
- half-life [5]: 3.5 min
- GI50 (A-375): 1.3 nM
- clearance [6]: 72 mL/min/kg
- GI50 (HT-29): 7.5 nM
- GI50 (HCT-116 [7]): 5.8 nM
- GI50 (CWR22R): 1.1 nM
- GI50 (HT-1080): 5 nM
- GI50 (MDA-MB-231): 4.5 nM
- GI50 (P12-Ichikawa): 1.9 nM

SMILES: COc1c(C)c(OC)c2c(c1O)[C@@H]1[C@@H]3Cc4c(OC)c(C)c(OC)c(O)c4[C@H](CNC(=O)c4cc5cc(OC6CCOCC6)ccc5o4)N3C[C@H](C2)N1C
- GI50 (HCT-116 [7]): > 300 nM

SMILES: COC1=C(C)C(=O)C2=C(C1=O)[C@@H]1[C@@H]3CC4=C(C(=O)C(OC)=C(C)C4=O)[C@H](CNC(=O)c4cc5cc(OC6CCOCC6)ccc5o4)N3[C@@H](C#N)[C@H](C2)N1C
- GI50 (PC-3): 16.5 nM
- GI50 (DLD-1): 26.5 nM
- GI50 (HCT-116 [7]): 17.3 nM

SMILES: COc1c(C)c(OC)c2c(c1O)[C@@H]1[C@@H]3Cc4c(OC)c(C)c(OC)c(O)c4[C@H](CNC(=O)c4cc5cc(OC6CCOCC6)ccc5o4)N3[C@@H](O)[C@H](C2)N1C
- GI50 (PC-3): 5 nM
- GI50 (A549): 20.6 nM
- GI50 (DLD-1): 10.4 nM
- GI50 (HCT-116 [7]): 5.5 nM

Further lines, with some results ahead:

- GI50 (HCT-116 [7]): 201 nM
SMILES: COc1c(C)c(OC)c2c(c1O)[C@@H]1[C@@H]3Cc4c(OC)c(C)c(OC)c(O)c4[C@H](CNC(=O)c4ccc(CNS(=O)(=O)c5cccc6c(N(C)C)cccc56)cc4)N3[C@@H](C#N)[C@H](C2)N1C

- GI50 (PC-3): 2.7 nM
- AUC [1]: 0.483 µM·h
- GI50 (A549): 18.9 nM
- half-life [2]: 25 min
- bioavailability [3]: 38%
- GI50 (DLD-1): 8.3 nM
- Cmax [4]: 3700 nM
- half-life [5]: 3 min
- clearance [6]: 45 mL/min/kg
- GI50 (HCT-116 [7]): 3.2 nM
SMILES: COc1c(C)c(OC)c2c(c1O)[C@@H]1[C@@H]3Cc4c(OC)c(C)c(OC)c(O)c4[C@H](CNC(=O)c4cc5cc(OC6CCOCC6)ccc5o4)N3[C@@H](C#N)[C@H](C2)N1C
- Activity (Mus musculus [8]): Active
- inhibition in vivo at 1.25 mg/kg (HCT-116 [9]): 68%
- Activity (Mus musculus [10]): Active
- inhibition in vivo at 2.5 mg/kg (HCT-116 [11]): 96%

- GI50 (HCT-116 [7]): 5.5 nM
SMILES: COc1c(C)c(OC)c2c(c1O)[C@@H]1[C@@H]3Cc4c(OC)c(C)c(OC)c(O)c4[C@H](CNC(=O)c4cc5ccccc5o4)N3[C@@H](C#N)[C@H](C2)N1C

- GI50 (PC-3): 11.7 nM
- GI50 (A549): 57.5 nM
- GI50 (DLD-1): 22.4 nM
- GI50 (HCT-116 [7]): 8.1 nM
SMILES: COc1c(C)c(OC)c2c(c1O)[C@@H]1[C@@H]3Cc4c(OC)c(C)c(OC)c(O)c4[C@H](CNC(=O)c4cc5cc(OCCN6CCOCC6)ccc5o4)N3[C@@H](C#N)[C@H](C2)N1C
